In US12403127B2, “Specifically meso-substituted porphyrins and chlorins for photodynamic therapy” (biolitec Unternehmensbeteiligungs II AG, priority 2014, dated 2025):

Assays:
[1] = test system: CAL-27 (human tongue squamous cell carcinoma cell line); experiment: Cell test of photosensitizing activity (XTT cell viability after 652 nm laser irradiation) in CAL-27; assay type: cell-based; settings: 2 or 10 μM photosensitizer, 24 h incubation, 50 J/cm^2, XTT viability 24 h after irradiation
Procedure: (§1) The photosensitizing activity was determined in the following cell lines: • HT29 (human colon adenocarcinoma cell line) • L929 (mouse fibroblast cell line) • A431 (human epidermoid carcinoma cell line) • A253 (submaxillary salivary gland, epidermoid cell line) • CAL-27 (human tongue squamous cell carcinoma cell line).
(§2) The cell lines were grown in DMEM (PAA Laboratories GmbH) supplemented with 10% heat-inactivated fetal calf serum (FCS, PAA Laboratories GmbH), 1% penicillin (10000 IU) and streptomycin (10000 μg/ml, PAA Laboratories GmbH). Cells were kept as a monolayer culture in a humidified incubator (5% CO2 in air at 37° C.).
(§3) A photosensitizer stock solution (2 mM) was performed in DMSO and was kept in the dark at 4° C. Further dilution was performed in DMEM medium without phenol red supplemented with 10% FCS to reach a final photosensitizer concentration of 2 or 10 μM, respectively.
(§4) 2·10^4 cells/ml were seeded in micro plates ([…]). Cells were incubated with fresh medium (DMEM without phenol red) containing 10% FCS with 2 or 10 μM of the photosensitizer for 24 h before light exposure. […]
(§5) The cell viability was assessed by the XTT assay. […]
(§6) The absorbance of the samples was measured with a spectrophotometer (Infinite 200, Tecan Group Ltd.) at a wavelength of 490 nm. In order to measure reference absorbance (to measure non-specific readings) a wavelength of 630-690 nm was used.

[2] = test system: HT29 (human colon adenocarcinoma cell line); experiment: Cell test of photosensitizing activity (XTT cell viability after 652 nm laser irradiation) in HT29; assay type: cell-based; settings: 2 or 10 μM photosensitizer, 24 h incubation, 50 J/cm^2, XTT viability 24 h after irradiation
Procedure: as §1, §2, §3, §4, §5, §6

Q: Which results are given for “5,10,15-tris-(3-hydroxy-phenyl)-20-[4-(butyloxy)-tetra-fluorphenyl]-porphyrin [Example 7.13]”?
A: PDT activity against CAL-27 cells [1]: show PDT activity; photodynamic activity (photo toxicity, "Laser") in the HT29 cell line [2]: lack activity
